# In patent US9689042B2, “Use of glycolytic pathways for inhibiting or measuring oncogenic signaling” (The Regents of the University of California, priority 2012, dated 2017):
# Entries after “also recorded” stand apart in the source; their conditions may differ.
# Tests used:
# T4-2 cells [1] = details: T4-2 cells, 3D lrECM; for phenotypic reversion of the malignant phenotype: 2DG 4 mM, IA 20 μM, OX 50 mM, Azs 20 μM, DON 20 μM, BADGP 5 mM, TM 10 ng/ml, OGM 4 ng/ml, Rapa 0.01-1.0 μM; for basal polarity / organized acinar structures / growth / proliferation (cell numbers at the colony mid-section, EdU incorporation): same inhibitor concentrations as E1
# Description: HMT-3522 cells were cultured on tissue culture plastic (2D) and in 3D lrECM gels with H14 medium, a 1:1 mix of DMEM/F12 (UCSF Cell Culture Facility) supplemented with 250 ng/ml insulin, 10 μg/ml transferrin, 2.6 ng/ml sodium selenite, 0.1 nM β-estradiol, 1.4 μM hydrocortisone and 5 μg/ml prolactin but no serum. S1 cells were additionally supplemented with 10 ng/ml EGF. MDA-MB-231 and HCC70 cells were cultured in DMEM and RPMI1640, respectively, and were supplemented with 10% fetal bovine serum (FBS).
# For 3D lrECM cultures, S1 and T4-2 cells were seeded at 840,000 and 600,000 cells per cm3 respectively in lrECM gel (Cultrex), overlaid with H14 medium. MDA-MB-231 and HCC70 cells were seeded at 625,000 cell per cm3 and overlaid with H14 medium supplemented with 1% FBS. Cells were used for each assay after 10 days, unless otherwise indicated.
# Pieces of lrECM gel containing cell colonies were suspended in approximately the same volume of phosphate buffered saline (PBS) and directly spread on glass slides. After brief air-drying, colonies were fixed with 3.7% paraformaldehyde (PFA) in PBS at room temperature (RT) for 10 min, washed with PBS containing 0.1 mM glycine, and permeabilized with 1:1 methanol/acetone at −20° C. for 10 min. After blocking with IF buffer (0.2% Triton X-100, 0.1% BSA [radioimmunoassay grade], 0.05% Tween 20, 7.7 mM NaN3 in PBS) containing 10% goat serum and 1% goat F(ab′)2 anti-mouse immunoglobulin G (IgG; Caltag) at RT for 30 min, colonies were stained with anti-α6 integrin antibody (Chemicon International) at 4° C. overnight. Colonies were washed extensively with IF buffer, and stained with Alexa 568-labeled anti-rat IgG antibody at RT for 2 hr. Colonies were washed with IF buffer again, and nuclei were stained with DAPI at RT for 10 min. Slides were briefly washed with PBS and mounted with 50% glycerol in PBS.
# To test whether increased glucose metabolism itself is required for oncogenic signaling events, we utilized 3D lrECM cultures of HMT-3522, a breast cancer progression series which includes non-malignant (S1) and malignant (T4-2) human breast epithelial cells from the same individual (Briand et al., 1987; Petersen et al., 1992; Rizki et al., 2008). Using these cells, we have described the involvement and reciprocity of multiple signaling pathways including EGFR, β1 integrin, PI3K-Akt and MEK-ERK in oncogenic events (Beliveau et al., 2010; Bissell et al., 2005). […] We thus used this “phenotypic reversion” of the cancer cells as an assay to examine how the signaling integration plan of the breast acini could involve glucose metabolism.
# [2] = test system: EGFR, β1 integrin, Akt, MEK, GLUT3, glycolytic enzymes in T4-2 cells; experiment: Western blots of signaling intermediates, GLUT3 and metabolic enzymes in 3D lrECM cultures of T4-2 cells; format: cell-based, human; details: T4-2 cells, 3D lrECM; for levels and/or activities of EGFR, β1 integrin, Akt and MEK (oncogenic signaling): Western blot; for EGFR expression and activity: Azs 20 μM, DON 20 μM
# Description: (§1) Cell colonies were separated from lrECM gels by shaking in PBS containing 5 mM EDTA and the proteinase inhibitor cocktail set I (Calbiochem) on ice for 30 min. Cells were lysed in lysis buffer (1% NP-40, 1% deoxycholate, 2% SDS, 150 mM NaCl, 20 mM Tris-HCl [pH 7.4] plus 5 mM EDTA and protease inhibitor cocktail set I and phosphatase inhibitor cocktail set I [Calbiochem]) and sonicated three times for 30 sec each. Proteins were separated by SDS-PAGE, transferred to nitrocellulose membranes, and probed with antibodies against the following proteins: phosphorylated MEK, MEK, phosphorylated Akt, Akt, phosphorylated AMPK, AMPK, p70S6K, phosphorylated p70S6K, CHOP, EPAC1 (Cell Signaling), β1 integrin, EGFR, activated EGFR, HIF-1α, (Chemicon International), PFKP (Abgent), GAPDH, GLUT3 (GeneTex), LDHA, PDHE1α, DLAT, DLD, HIF-3α, Rap1, sAC, EPAC2, OGT, Lamin A/C (Santa Cruz Biotechnology), Aldolase (Polysciences), GFPT (ProteinTech Group), HIF-2α (Abcam), and HA-tag (Covance). After probing with HRP-conjugated secondary antibodies, blots were developed using SuperSignal West Femto chemiluminescence reagent (Pierce Biotechnology). Images were captured using Fluor Chem 8900 imager (Alpha Innotech).
# T4-2 cells [3] = experiment: Glucose uptake assay (IRDye800CW-2DG) in 3D lrECM; format: cell-based, human
# Description: (§2) Cells suspended in 200 μl lrECM were seeded in 12 well glass-bottom plates (14 mm diameter; MatTek Corporation). Gels were overlaid with 500 μl H14 media and cultured for 10 days before each assay unless otherwise described.
# For glucose uptake assay, cells were incubated with 1 μM of IRDye800CW-2DG (LI-COR Biosciences) for 1 hour, fixed within gels with 4% paraformaldehyde (PFA) in PBS for 30 min. and stained with DRAQ5 (1:10000 dilution), an infrared dye that binds stoichiometrically to DNA, for 30 min. Cells were extensively washed with PBS, then IRDye800-2DG uptake together with DRAQ5 staining were measured by using Odyssey Infrared Imaging System (LI-COR Biosciences).
# (§3) In each assay, one well, containing only lrECM, was made for background measurements. Glucose uptake measured by 2DG uptake, lactate production and MitoTracker staining were normalized using total DNA levels, and presented relative to that of control (either S1 or non-treated T4-2 cells).
# T4-2 cells [4] = experiment: Lactate production assay in 3D lrECM; format: cell-based, human
# Description: as §2
# For lactate production, on day 9, conditioned-media were harvested to measure lactate remaining in the 200 μl of the gel (assuming equilibrium between medium and gel, C0 nmol/μl). […] After 24 hours, total culture medium was harvested for measurement of final lactate concentrations (C nmol/μl) and total volumes (V μl) of the conditioned-media, and the cells in gel were fixed with PFA as above. Concentration of lactate in each sample was measured using a lactate assay kit (BioVision). Net lactate production within 24 hours (N) was calculated as follows: N=C×(V+200)−C0×200. Fixed cells were stained with DRAQ5, to measure total level of DNA as a surrogate for number of cells, and the staining was measured as above.
# as §3
# T4-2 cells [5] = experiment: Mitochondrial activity (MitoTracker oxidation) assay in 3D lrECM; format: cell-based, human
# Description: as §2
# For mitochondrial activity, we slightly modified the method described previously (Morici et al., 2007). Briefly, cells were incubated with 2 μM MitoTracker® Orange CM-H2 TMRos (Invitrogen) for 1 hour and fixed with PFA as above. Cells were counterstained with Hoechst 33342 (Invitrogen), which is known also to bind to DNA stoichiometrically, then MitoTracker and Hoechst staining were measured by taking z-section images from top to bottom of the gels using confocal microscopy.
# as §3
# HCC70 cells = experiment: 3D lrECM culture of HCC70 cells; format: cell-based, human; details: IA 2 μM, DON 20 μM
# MDA-MB-231 cells [6] = experiment: 3D lrECM culture of MDA-MB-231 cells; format: cell-based, human; details: IA 40 μM, DON 20 μM
# MDA-MB-231 cells [7] = experiment: In vitro invasive activity (Matrigel invasion chamber); format: cell-based, human; details: IA 40 μM, DON 20 μM, 17.5 mM glucose, 16 hours
# Description: Invasive activity was examined using BD Biocoat GFR (growth factor reduced) Matrigel invasion chamber (BD Biosciences). Before the assay, lower surface of the membrane of the upper chamber was coated with collagen type I (10 μg/ml). MDA-MB-231 cells cultured on 2D plastic for two days with H14 medium containing different concentrations of glucose (17.5, 1.75 or 0 mM) or supplemented with metabolic inhibitors (40 μM IA or 20 μM DON, with 17.5 mM glucose) were detached by trypsinization, and 25,000 cells in each condition were seeded on the upper chambers. Both upper and lower chambers were filled with medium of the same formulations as that in each 2D culture. After 16 hours, cells were fixed with 4% PFA in PBS and stained with crystal violet.
# [8] = test system: signaling intermediates in MDA-MB-231 cells; experiment: Western blots of signaling intermediates in MDA-MB-231 cells; format: cell-based, human; details: IA 40 μM, DON 20 μM
# Description: as §1
# Rap1 = experiment: Measurement of Rap1 activity (GST-RalGDS-RBD pull-down) in T4-2 cells; format: cell-based, human; details: T4-2 cells, 3D lrECM, IA 20 μM
# Description: Rap1 activity was measured as described previously (Itoh et al., 2007). Briefly, cell colonies were extracted from lrECM as described above, and lysed in lysis buffer (50 mM Tris-HCl [pH 7.4], 500 mM NaCl, 1% NP40, 2.5 mM MgCl2, 10% glycerol, 10 μg/ml aprotinin and 10 μg/ml leupeptin) at 4° C. for 30 min. Lysates were cleared by centrifugation at 15,000×g at 4° C. for 15 min. Supernatants (containing 300 μg protein in 300 μl) were incubated with 15 μg of GST-tagged RalGDS-RBD fusion protein immobilized on Glutathione Sepharose 4B beads (GE Healthcare), at 4° C. for 1 hr. Beads were washed trice in lysis buffer and resuspended in Laemmli buffer. Samples were separated by SDS-PAGE, followed by transfer to polyvinylidene fluoride membranes (0.2 μm pore) and immunoblotting using anti-Rap1 antibody.
Compound,phenotypic reversion of the malignant phenotype (T4-2 cells [1]),basal polarity / organized acinar structures (T4-2 cells [1]),"growth / proliferation (cell numbers at the colony mid-section, EdU incorporation) (T4-2 cells [1])","levels and/or activities of EGFR, β1 integrin, Akt and MEK (oncogenic signaling) [2]",EGFR expression and activity [2],glucose uptake (T4-2 cells [3]),lactate production (T4-2 cells [4]),mitochondrial activity (oxidation) (T4-2 cells [5]),reversion phenotype (HCC70 cells),altered phenotype (MDA-MB-231 cells [6]),proliferation (total cell numbers) (MDA-MB-231 cells [6]),invasive property (MDA-MB-231 cells [7]),other signaling activities [8],"EGFR and MEK ([2]; basal medium 17.5 mM glucose, IA 20 μM, OX 50 mM)",Rap1 activity (Rap1)
"[N-]=[N+]=CC(=O)OC[C@H](N)C(=O)O [AZS, Azaserine]",do induce phenotypic reversion; also recorded: induced the repertoire of the reversion phenotype,re-establishment of tissue polarity,growth arrest,suppression of activation of oncogenic signaling,significantly down-regulated,significantly down-regulated,significantly down-regulated,remained unaltered,,,,,,,
"[N-]=[N+]=CC(=O)CC[C@H](N)C(=O)O [DON, 6-diazo-5-oxonorleucine]",do induce phenotypic reversion; also recorded: induced the repertoire of the reversion phenotype,re-establishment of tissue polarity,growth arrest,suppression of activation of oncogenic signaling,significantly down-regulated,significantly down-regulated,significantly down-regulated,remained unaltered,reversion phenotype was similar to that in T4-2 cells,incomplete but still significant,appreciable decrease,appreciable decrease,appreciable decrease,,
"O=C(O)CI [IA, Iodoacetate]",do induce phenotypic reversion,,,,,,,,reversion phenotype was similar to that in T4-2 cells,incomplete but still significant,appreciable decrease,appreciable decrease,appreciable decrease,not affected appreciably,down-regulation of Rap1 activity without a change in its total protein level
